Source: patent publication US10561670B2, “Compositions comprising acidic extracts of mastic gum” (REGENERA PHARMA LTD., priority 2010, dated 2020)

System: rat MCAO model
Experiment: Rat MCAO stroke model, adhesive removal test
Type: in vivo
Conditions: for Time to remove the adhesive tape from the contralateral paw: day 27, subcutaneous 25 microliters twice a week, each compound 0.65% (w/w) in cottonseed oil, versus vehicle and base line (FIG. 14A)
Text: For the experiments described herein, the animals are anesthetized using ketamine/xylazine solution. The animal's neck is then shaved and a midline incision is made in the skin of the neck, and the tissue underneath is bluntly dissected. The right common carotid artery (CCA) and its junction with the external carotid artery (ECA) and internal carotid artery (ICA) are exposed by blunt dissection. The CCA is then transiently closed by positioning around it a 3-0 silk suture material. The ECA is permanently occluded with the same type of suture material. A third closure, transient, is also done in the ICA with 3-0 silk suture material.
A small hole is cut in the ECA and the nylon thread is inserted into the ICA while avoiding entrance into the pterygopalatine artery. The thread is inserted 21-25 mm until a slight resistance is felt. Then a 3-0 silk suture knot secures the thread.
Following surgery, the rats are returned to their cages and remain under a heating lamp until they awake.
Two parameters are monitored and recorded during the ischemic surgery procedure: animal's core temperature and blood glucose level (BGL).
Core temperature is monitored using rectal probe (YSI USA model 400) connected to a measuring unit (Cole Parmer model 8402-00) during the entire surgery period. Ischemic insult is started when rectal temperature is 37-38° C.
The rats of the different groups were injected twice a week subcutaneous with 25 microliters of designated test item. First injection was given three hours after stroke induction.
• Vehicle: cottonseed oil • IMDA: 0.65% (w/w) in cottonseed oil • MDA: 0.65% (w/w) in cottonseed oil • IMDA and MDA: each 0.65% (w/w) in cottonseed oil • IMDA, MDA and OA: each 0.65% (w/w) in cottonseed oil MDA alone; IMDA alone; a combination of MDA+IMDA; and a combination of OA+MDA+IMDA, were tested using a rat MCAO model, for their therapeutic capacity. Stroke induced rats were treated with each of the tested compounds and the improvement of their sensorimotor abilities were tested using the adhesive removal test. […] The time to remove the tape is recorded. […]

SMILES	Time to remove the adhesive tape from the contralateral paw	Baseline fold change, removal of adhesive tape from the contralateral paw (day 27 relative to base line score (FIG. 14B)) [fold]
C/C(=C\CC[C@H](C)[C@@H]1CC[C@]2(C)C3=CC[C@H]4C(C)(C)C(=O)CC[C@]4(C)[C@H]3CC[C@@]12C)C(=O)O [MDA, Masticadienoic acid]	only slightly better than the vehicle control	–
CC(=CCCC(C)C1CCC2(C)C3=C(CCC12C)C1(C)CCC(=O)C(C)(C)C1CC3)C(=O)O (stereo not drawn) [IMDA, Isomasticadienoic acid]	able to improve the score of treated rats	10
